Assay results as given in patent US8318637B2, “Herbicide/azole combination” (Bayer Cropscience AG, priority 2007, dated 2012).

Columns and labels:
Format in all cases: in vivo
[1] = test system: Wheat; test: Greenhouse trial, post-emergence crop damage, visual scoring; conditions: approx. 4 weeks after application
Experimental: (§1) The seeds of typical harmful plants and of typical cereal plants were sown, allowed to emerge and grown under greenhouse conditions. Treatment with the compositions according to the invention was carried out after emergence of the harmful plants generally at the 2- to 4-leaf stage at various dosages using a water application rate of 300 l/ha (converted).
(§2) After the treatment (approx. 4 weeks after application), the herbidical activity of the active compounds or active compound mixtures was scored visually by comparing the treated plots with untreated control plots. Damage and development of all above-ground parts of the plants was recorded. Scoring was done on a percentage scale (100% activity=all plants dead; 50% activity=50% of the plants and green plant parts dead; 0% activity=no discernible activity=like control plot).
(§3) The results are listed in the tables below, where the activity measured for the independent use of the active compounds A) and B) is stated in brackets and g of AS/ha means gram of active substance per hectare.

[2] = test system: Alopecurus myosuroidis; test: Greenhouse trial, post-emergence herbicidal action, visual scoring; conditions: 672 h, approx. 4 weeks after application
Experimental: as §1, §2, §3

[3] = test system: Lolium multiflorum; test: as above; conditions: 672 h, approx. 4 weeks after application
Experimental: as §1, §2, §3

Fc1ccc([C@]2(Cn3cncn3)O[C@H]2c2ccccc2Cl)cc1 (racemic) [epoxiconazole]
0%: Wheat % damage ([1]; 125 g of AS/ha) | Wheat % damage ([1]; 250 g of AS/ha) | inhibition at 125 g/ha ([2]; 125 g of AS/ha) | inhibition at 250 g/ha ([2]; 250 g of AS/ha) | inhibition at 125 g/ha ([3]; 125 g of AS/ha) | inhibition at 250 g/ha ([3]; 250 g of AS/ha)
